Data: PubChem BioAssay AID256 (DTP/NCI, 2004)
Toxic doses and inconclusive results are not listed. The calls were made as follows: active = survival T/C of 150% or more; inactive = T/C below 125% in these data.

Tested on: CD2F1 mice, L1210 leukemia ip, survival T/C
Assay: NCI In Vivo Anticancer Drug Screen. Data for tumor model L1210 Leukemia (intraperitoneal) in CD2F1 (CDF1) mice
Conditions: higher = longer survival
Method in brief: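 Compound-dosed mice with transplantable tumor versus matched vehicle controls; endpoint ratio T/C reported.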

[1] = endpoint: mean survival time, dose: 50.0 mg/kg/injection, schedule: Q04DX002 (ip), vehicle: saline with Tween-80
[2] = endpoint: mean survival time, dose: 100.0 mg/kg/injection, schedule: Q04DX002 (ip), vehicle: saline with Tween-80
[3] = endpoint: mean survival time, dose: 100.0 mg/kg/injection, schedule: Q04DX003 (ip), vehicle: saline with Tween-80
[4] = endpoint: mean survival time, dose: 200.0 mg/kg/injection, schedule: Q04DX003 (ip), vehicle: saline with Tween-80
[5] = endpoint: mean survival time, dose: 100.0 mg/kg/injection, schedule: Q01DX009 (ip), vehicle: saline with Tween-80
[6] = endpoint: mean survival time, dose: 200.0 mg/kg/injection, schedule: Q01DX009 (ip), vehicle: saline with Tween-80
[7] = endpoint: mean survival time, dose: 5.0 mg/kg/injection, schedule: Q01DX009 (ip), vehicle: saline with Tween-80
[8] = endpoint: mean survival time, dose: 10.0 mg/kg/injection, schedule: Q01DX009 (ip), vehicle: saline with Tween-80
[9] = endpoint: mean survival time, dose: 20.0 mg/kg/injection, schedule: Q01DX009 (ip), vehicle: saline with Tween-80
[10] = endpoint: mean survival time, dose: 50.0 mg/kg/injection, schedule: Q01DX009 (ip), vehicle: saline with Tween-80
[11] = endpoint: mean survival time, dose: 400.0 mg/kg/injection, schedule: Q01DX009 (ip), vehicle: saline with Tween-80
[12] = endpoint: mean survival time, dose: 400.0 mg/kg/injection, schedule: Q04DX003 (ip), vehicle: saline with Tween-80
[13] = endpoint: mean survival time, dose: 100.0 mg/kg/injection, schedule: Q01DX001 (ip), vehicle: saline
[14] = endpoint: mean survival time, dose: 200.0 mg/kg/injection, schedule: Q01DX001 (ip), vehicle: saline
[15] = endpoint: mean survival time, dose: 400.0 mg/kg/injection, schedule: Q01DX001 (ip), vehicle: saline
[16] = endpoint: mean survival time, dose: 100.0 mg/kg/injection, schedule: Q04DX003 (ip), vehicle: saline
[17] = endpoint: mean survival time, dose: 200.0 mg/kg/injection, schedule: Q04DX003 (ip), vehicle: saline
[18] = endpoint: mean survival time, dose: 100.0 mg/kg/injection, schedule: Q04DX003 (ip), vehicle: Klucel (hydroxypropylcellulose) (HPC)
[19] = endpoint: mean survival time, dose: 200.0 mg/kg/injection, schedule: Q04DX003 (ip), vehicle: Klucel (hydroxypropylcellulose) (HPC)

Measured: T/C

CCc1cc(/C=C2\C(=O)C=Cc3ccccc32)c(O)s1
inactive: endpoint: mean survival time, dose: 25.0 mg/kg/injection, schedule: Q04DX002 (ip), vehicle: saline with Tween-80 101 % of control | [1] 96 % of control | [2] 96 % of control

Cc1c(Cl)cccc1NC(=O)Oc1ccc(Cl)cc1Cl
inactive: [3] 95 % of control | [4] 97 % of control

C=C(C)C1C2CC3(C)C4(CO4)C4OC4C3(O)C1C(=O)O2 (stereo unspecified)
inactive: endpoint: median survival time, dose: 0.25 mg/kg/injection, schedule: Q01DX009 (ip), vehicle: Klucel (hydroxypropylcellulose) (HPC) 100 % of control | endpoint: median survival time, dose: 0.5 mg/kg/injection, schedule: Q01DX009 (ip), vehicle: Klucel (hydroxypropylcellulose) (HPC) 98 % of control | endpoint: median survival time, dose: 1.0 mg/kg/injection, schedule: Q01DX009 (ip), vehicle: Klucel (hydroxypropylcellulose) (HPC) 103 % of control | endpoint: median survival time, dose: 2.0 mg/kg/injection, schedule: Q01DX009 (ip), vehicle: Klucel (hydroxypropylcellulose) (HPC) 97 % of control

CC(=O)NC1=NC(=O)/C(=C/Cc2cccs2)N1C
inactive: [5] 101 % of control | [6] 108 % of control

NC(CCSCc1ccc(N(CCCl)CCCl)cc1)C(=O)O (stereo unspecified)
active: endpoint: mean survival time, dose: 14.0 mg/kg/injection, schedule: Q01DX009 (ip), vehicle: carboxymethylcellulose (CMC) 152 % of control

COc1cc(O)c(Cc2ccccc2O)c(O)c1C(=O)CCc1ccccc1
inactive: endpoint: mean survival time, dose: 1.25 mg/kg/injection, schedule: Q01DX009 (ip), vehicle: saline with Tween-80 105 % of control | endpoint: mean survival time, dose: 2.5 mg/kg/injection, schedule: Q01DX009 (ip), vehicle: saline with Tween-80 100 % of control | [7] 97 % of control | [8] 105 % of control | [9] 100 % of control

CCOC(=O)CCC(C)(C#N)c1ccccc1 (stereo unspecified)
inactive: endpoint: mean survival time, dose: 25.0 mg/kg/injection, schedule: Q01DX009 (ip), vehicle: saline with Tween-80 96 % of control | [10] 93 % of control | [5] 98 % of control

CCC1(c2cccc([N+](=O)[O-])c2)OCCO1
inactive: endpoint: mean survival time, dose: 100.0 mg/kg/injection, schedule: Q01DX001 (ip), vehicle: saline with Tween-80 94 % of control | [5] 102 % of control | [3] 102 % of control | endpoint: mean survival time, dose: 200.0 mg/kg/injection, schedule: Q01DX001 (ip), vehicle: saline with Tween-80 94 % of control | [6] 110 % of control | [4] 107 % of control | endpoint: mean survival time, dose: 400.0 mg/kg/injection, schedule: Q01DX001 (ip), vehicle: saline with Tween-80 94 % of control | [11] 103 % of control | [12] 102 % of control

CCCN(CCC)S(=O)(=O)c1ccc(NC(=O)Oc2cc(C)ccc2C(C)C)cc1
inactive: [13] 100 % of control | [14] 95 % of control | [15] 94 % of control

CC(C)(C)OC(=O)NCCCCC(NC(=O)OC(C)(C)C)C(=O)O (stereo unspecified)
inactive: [13] 100 % of control | [14] 110 % of control | [15] 97 % of control

O=c1cccc[nH]1 (tested in a mixture with another compound)
inactive: [10] 108 % of control | [16] 97 % of control | [17] 97 % of control

CCC(CC(=O)O)c1ccccc1 (stereo unspecified)
inactive: endpoint: mean survival time, dose: 50.0 mg/kg/injection, schedule: Q04DX003 (ip), vehicle: saline 96 % of control | [16] 100 % of control | [17] 102 % of control

CC1=CS(=O)(=O)CC(=O)N1
inactive: [3] 103 % of control | [4] 98 % of control | [12] 95 % of control

CC(=O)N/C(=C/c1ccccc1)C(=O)NC(C)(C)C
inactive: [3] 96 % of control | [4] 99 % of control | [12] 89 % of control

CC(C)(C)C1CC=CCC1 (stereo unspecified)
inactive: [3] 98 % of control | [4] 98 % of control

CCCC[PH+](CCCC)CCCC.CCCC[PH+](CCCC)CCCC.O=[N+]([O-])O.O=[N+]([O-])O.[Ni]
inactive: [1] 92 % of control

C=CCN(N=O)C(=O)OCC
inactive: endpoint: mean survival time, dose: 12.5 mg/kg/injection, schedule: Q01DX009 (ip), vehicle: other 107 % of control | endpoint: mean survival time, dose: 25.0 mg/kg/injection, schedule: Q01DX009 (ip), vehicle: other 107 % of control | endpoint: mean survival time, dose: 50.0 mg/kg/injection, schedule: Q01DX009 (ip), vehicle: other 104 % of control | endpoint: mean survival time, dose: 100.0 mg/kg/injection, schedule: Q01DX009 (ip), vehicle: other 113 % of control

CNCC(=O)NCCCCCCCCCCNC(=O)CNC
inactive: endpoint: mean survival time, dose: 12.5 mg/kg/injection, schedule: Q01DX010 (ip), vehicle: saline 100 % of control | endpoint: mean survival time, dose: 25.0 mg/kg/injection, schedule: Q01DX010 (ip), vehicle: saline 101 % of control | endpoint: mean survival time, dose: 50.0 mg/kg/injection, schedule: Q01DX010 (ip), vehicle: saline 97 % of control | endpoint: mean survival time, dose: 100.0 mg/kg/injection, schedule: Q01DX010 (ip), vehicle: saline 95 % of control

CN(C)N=Nc1cc(Cl)cc(C(N)=O)c1Cl
inactive: endpoint: mean survival time, dose: 88.0 mg/kg/injection, schedule: Q01DX009 (ip), vehicle: saline with Tween-80 123 % of control | endpoint: mean survival time, dose: 177.0 mg/kg/injection, schedule: Q01DX009 (ip), vehicle: saline with Tween-80 120 % of control | [11] 96 % of control

Nc1ccc(-c2c(N)nc(Br)c3ccccc23)cc1
inactive: endpoint: mean survival time, dose: 50.0 mg/kg/injection, schedule: Q04DX003 (ip), vehicle: DMSO 98 % of control | endpoint: mean survival time, dose: 100.0 mg/kg/injection, schedule: Q04DX003 (ip), vehicle: DMSO 93 % of control | endpoint: mean survival time, dose: 200.0 mg/kg/injection, schedule: Q04DX003 (ip), vehicle: DMSO 110 % of control | endpoint: mean survival time, dose: 400.0 mg/kg/injection, schedule: Q04DX003 (ip), vehicle: DMSO 104 % of control

CC(=O)C(c1ccccc1)C(c1ccccc1)P(=O)(c1ccccc1)c1ccccc1 (stereo unspecified)
inactive: [5] 87 % of control | [3] 97 % of control | [6] 90 % of control | [4] 94 % of control | [11] 96 % of control | [12] 87 % of control

COc1ccc(CCC(=O)O)cc1OC
inactive: [5] 96 % of control | [3] 98 % of control | [6] 97 % of control | [4] 96 % of control | [11] 92 % of control | [12] 104 % of control

CCn1cnc2c(SC3CCCC3)ncnc21
inactive: endpoint: mean survival time, dose: 100.0 mg/kg/injection, schedule: Q01DX001 (ip), vehicle: carboxymethylcellulose (CMC) 112 % of control | endpoint: mean survival time, dose: 200.0 mg/kg/injection, schedule: Q01DX001 (ip), vehicle: carboxymethylcellulose (CMC) 108 % of control | endpoint: mean survival time, dose: 400.0 mg/kg/injection, schedule: Q01DX001 (ip), vehicle: carboxymethylcellulose (CMC) 121 % of control

CC1CN1P(=O)(N1CC1C)N1CC1C.CC1CN1P(=O)(N1CC1C)N1CC1C.CC1CN1P(=O)(N1CC1C)N1CC1C.CC1CN1P(=O)(N1CC1C)N1CC1C.CC1CN1P(=O)(N1CC1C)N1CC1C.CC1CN1P(=O)(N1CC1C)N1CC1C.[Fe+3].[O-][Cl+3]([O-])([O-])O (stereo unspecified)
inactive: [2] 98 % of control | endpoint: mean survival time, dose: 200.0 mg/kg/injection, schedule: Q04DX002 (ip), vehicle: saline with Tween-80 98 % of control | endpoint: mean survival time, dose: 400.0 mg/kg/injection, schedule: Q04DX002 (ip), vehicle: saline with Tween-80 115 % of control

C[n+]1ccccc1/C=C/c1cccc([N+](=O)[O-])c1
inactive: [7] 100 % of control | [8] 105 % of control | [9] 107 % of control

O=C(Nc1ccc(C(=O)O)cc1)Nc1ccc(F)c(Cl)c1
inactive: endpoint: mean survival time, dose: 50.0 mg/kg/injection, schedule: Q01DX009 (ip), vehicle: Klucel (hydroxypropylcellulose) (HPC) 109 % of control | endpoint: mean survival time, dose: 100.0 mg/kg/injection, schedule: Q01DX009 (ip), vehicle: Klucel (hydroxypropylcellulose) (HPC) 102 % of control | [18] 104 % of control | endpoint: mean survival time, dose: 200.0 mg/kg/injection, schedule: Q01DX009 (ip), vehicle: Klucel (hydroxypropylcellulose) (HPC) 95 % of control | [19] 104 % of control

O=C1CC2CCCCC2CO1 (stereo unspecified)
active: endpoint: mean survival time, dose: 75.0 mg/kg/injection, schedule: Q01DX001 (ip), vehicle: saline 160 % of control

OC1(C2(O)c3ccccc3Oc3ccccc32)c2ccccc2Oc2ccccc21
inactive: endpoint: mean survival time, dose: 100.0 mg/kg/injection, schedule: Q01DX009 (ip), vehicle: saline 99 % of control | endpoint: mean survival time, dose: 200.0 mg/kg/injection, schedule: Q01DX009 (ip), vehicle: saline 97 % of control

CCC(c1ccc2cc(OC)ccc2c1)C(C(=O)O)C(=O)O (stereo unspecified)
inactive: [18] 95 % of control | [19] 93 % of control
